Measurements: patent publication US7884122B2, “Extended release formulation and method of treating adrenergic dysregulation” (Shionogi Pharma, Inc., priority 2007, dated 2011)
Values after ≈ are worked out from the molar mass of the structure shown.

What was measured:
[1] = system: systolic and diastolic blood pressure; assay: animal or person; conditions: Homo sapiens, 600 h, Systolic BP vs AUCτ at Day 25, sigmoidal Emax model
Experimental: Mean baseline ABPM data for the three treatment groups were compared with mean data obtained on Day 26 (last day of treatment) and on Days 27 and 28. A more detailed PK/PD analysis was conducted by using the individual patient ABPM data to compare the blood pressure profile at Baseline and on Day 26 of treatment. The daytime (0- to 12-hour) intervals were used in the analysis, since pharmacokinetic data were collected on Day 25, over the daytime 12-hour dosing interval at steady state. In order to investigate the maintenance of effect at the tail end of the inter-dosing interval, differences between the SBP, DBP, and HR values at Baseline and the last two hours in the inter-dosing interval (Hours 11 and 12) on Day 26 were calculated for each patient. Paired t-tests were performed to test the significance of these differences between Baseline and the last two measuring times. The approach taken to quantify the effects of clonidine on blood pressure was to calculate the difference between the areas under the BP vs. time curves (AUCBP) at Baseline and on Day 26. These values were used to relate the pharmacodynamic effect to dose, as well as to conduct the PK/PD analyses.
Pharmacokinetic-pharmacodynamic modeling was conducted using the blood pressure response data and the Cmax, Cmin and AUCτ values at Day 25 of dosing. […]

[2] = traditional oral formulation of clonidine; cited from earlier work

## Clc1cccc(Cl)c1N=C1NCCN1 [clonidine, 2,6-dichloro-N-2-imidazolidinylidene benzeneamine]
[1]
  EC50: 4.7 ng/mL (≈ 0.0204 µM)
  EC90: 6.69 ng/mL (≈ 0.0291 µM)
[2]
  biological half-life: about four to six hours
